Assay results: patent US20100087466A1, “NOVEL SMALL MOLECULE DNAK INHIBITORS” (priority 2008, published 2010)
≈ marks a conversion by molar mass, not a printed value. Structures can show the parent of a compound that is named as a salt. Where two headings read alike, the source gives them in different places. Non-standard residues stand in square brackets, D forms with d. Residues, ends and D or L forms follow the SMILES beside them. *: point of attachment. Phe(4-F) = N[C@@H](Cc1ccc(F)cc1)C(=O)O; Hyp = O=C(O)[C@@H]1C[C@@H](O)CN1; Octanoyl = CCCCCCCC(=O)*; Piperidide = C1CCN(*)CC1; Bn = c1ccc(C*)cc1

What was measured:
[1] = target: DnaK (Escherichia coli, UniProt P0A6Y8); assay: DnaK Inhibition Assay (DnaK induced refolding of denatured firefly luciferase); assay type: biochemical, E. coli; conditions: DnaK 200 nM, DnaJ 100 nM, GrpE 400 nM
Description: Inhibition of the bacterial DnaK chaperone system may be evaluated by inhibition of the DnaK induced refolding of denatured firefly luciferase. More specifically, firefly luciferase is denatured by treatment with 8N guanidium hydrochloride at room temperature for 30 mins and then 5° C. for 1 h. After dilution into cold MOPS buffer augmented with ATP (2.5 mM) and DTT (12.5 mM) and standing for a further hour, the denatured luciferase is refolded by addition to a mixture of chaperone proteins in MOPS buffer, resulting in a reaction mixture containing denatured luciferase (24 nM), DnaK (200 nM), DnaJ (100 nM) and GrpE (400 nM). The extent of refolding is determined by addition of a luciferase substrate and measurement of the emitted chemoluminescence. In this format the substrate is the commercially available luciferase “Steady-Glo” reagent from Promega, Inc. Inhibition of DnaK induced refolding is determined by premixing the chaperone proteins with the test agent at concentrations of test agent ranging from 1-100 μg/mL. The extent of refolding is compared to that with no test reagent, and the IC50 is estimated by fitting the data to a standard sigmoidal dose-response curve.
Inhibition of the bacterial DnaK chaperone system was evaluated by inhibition of the DnaK induced refolding of denatured firefly luciferase. Firefly luciferase was denatured by treatment with 8N guanidium hydrochloride at room temperature for 30 mins and then 5° C. for 1 h. After dilution into cold MOPS buffer augmented with ATP (2.5 mM) and DTT (12.5 mM) and standing for a further hour, the denatured luciferase was refolded by addition to a mixture of chaperone proteins in MOPS buffer, resulting in a reaction mixture containing denatured luciferase (24 nM), DnaK (200 nM), DnaJ (100 nM) and GrpE (400 nM). The extent of refolding was determined by addition of a luciferase substrate and measurement of the emitted chemoluminescence. In this format the substrate is the commercially available luciferase “Steady-Glo” reagent from Promega, Inc. Inhibition of DnaK induced refolding was determined by premixing the chaperone proteins with the test agent at concentrations of test agent ranging from 1-100 μg/mL. The extent of refolding was compared to that with no test reagent, and the IC50 was estimated by fitting the data to a standard sigmoidal dose-response curve.
IC50 is defined as the concentration in μM at which 50% inhibition of DnaK induced refolding of denatured firefly luciferase occurs.

[2] = system: H. influenzae (Strain 109); assay: H. influenzae Inhibition Assay (broth microdilution MIC), Strain 109; assay type: cell-based; conditions: for MIC: Haemophilus influenzae
Description: (§1) An in vitro assay may be conducted by determining the minimum inhibitory concentration (MIC) of the small molecules to Gram negative bacteria, such as H. influenza. H. influenzae MICs are determined using CLSI recommended broth microdilution methodology (M7-A7). Test agent powders are dissolved in DMSO, serial dilutions are also made in DMSO and 1:100 dilutions of each are then prepared in Haemophilus Test media (HTM). 100 μL of each final dilution are transferred to appropriate wells of a 96 well microtiter plate. The test organism is suspended in saline or Mueller Hinton broth to an organism density equivalent to a 0.5 McFarland Standard. 300 μL of the H. influenzae suspension is transferred to 11 mLs of HTM and 10 μL of this suspension is transferred to each well of the microtiter plate. […] Colony counts are determined for each inoculum and expected range of final organism concentration is 3-7×10^5 CFU/mL. One of the recommended H. influenzae quality control strains (ATCC 49247 or 49766) is also tested on each testing day.
as §1, with “H.” for “An in vitro assay may be conducted by determining the minimum inhibitory concentration (MIC) of the small molecules to Gram negative bacteria, such as H. influenza. H.”
(§2) Pyrrhocoricin was used as a control. MIC is defined as the lowest concentration of an anti-bacterial agent that will inhibit the visible growth of a microorganism after overnight incubation.

[3] = system: H. influenzae (Strain 110); assay: H. influenzae Inhibition Assay (broth microdilution MIC), Strain 110; assay type: cell-based; conditions: for MIC: Haemophilus influenzae
Description: as §1
as §1, with “H.” for “An in vitro assay may be conducted by determining the minimum inhibitory concentration (MIC) of the small molecules to Gram negative bacteria, such as H. influenza. H.”
as §2

[4] = system: E. coli (ATCC 25922); assay: Antibacterial activity against E. coli (MIC); assay type: cell-based; conditions: Escherichia coli, ATCC25922
[5] = read-out: DnaK IC50(μg/ml) (converted)
[6] = Strain 109, HTM, 35° C., 20-24 hours, read-out: H. influenzae (Strain 109) MIC
[7] = Strain 110, HTM, 35° C., 20-24 hours, read-out: H. influenzae (Strain 110) MIC

DnaK, sequence (P0A6Y8 2-638): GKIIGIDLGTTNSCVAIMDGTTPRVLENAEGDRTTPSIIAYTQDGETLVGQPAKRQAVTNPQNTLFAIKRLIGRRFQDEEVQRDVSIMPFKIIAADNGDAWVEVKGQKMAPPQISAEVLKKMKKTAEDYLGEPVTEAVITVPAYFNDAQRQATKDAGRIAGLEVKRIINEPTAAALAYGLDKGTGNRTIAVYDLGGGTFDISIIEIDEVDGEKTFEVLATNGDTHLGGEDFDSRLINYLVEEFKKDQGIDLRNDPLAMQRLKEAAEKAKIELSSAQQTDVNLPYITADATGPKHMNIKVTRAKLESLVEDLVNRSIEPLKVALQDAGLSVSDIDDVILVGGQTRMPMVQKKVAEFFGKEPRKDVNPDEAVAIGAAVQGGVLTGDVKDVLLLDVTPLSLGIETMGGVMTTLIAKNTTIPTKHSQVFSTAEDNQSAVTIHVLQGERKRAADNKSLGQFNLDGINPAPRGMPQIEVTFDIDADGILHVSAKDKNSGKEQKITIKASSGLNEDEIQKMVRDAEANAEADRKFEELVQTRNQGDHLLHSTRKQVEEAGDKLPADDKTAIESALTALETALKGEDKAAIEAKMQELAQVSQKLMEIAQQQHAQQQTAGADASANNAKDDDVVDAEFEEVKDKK

SMILES	IC50 ([1]; read-out: DnaK IC50) [µM]	IC50 [1, 5] [µM]	MIC [2, 6] [µg/mL]	inhibition of H. influenzae strain 109 compared with the control pyrrhocoricin [2]	MIC [3, 7] [µg/mL]	MIC [4] [µg/mL]	MIC ([2]; read-out: H. influenzae (Strain 109) MIC (μg/ml)) [µg/mL]	MIC ([3]; read-out: H. influenzae (Strain 110) MIC (μg/ml)) [µg/mL]	inhibition of H. influenzae strain 110 compared with the control pyrrhocoricin ([3]; strain 110)
COC(=O)[C@@H]1CCCN1C(=O)[C@H](CC(C)C)NC(=O)[C@H](Cc1ccc(OCc2ccccc2)cc1)NC(C)=O [Structure 2, Ac-Tyr(Bzl)-Leu-Pro-OMe] (Ac-Tyr(Bn)-Leu-Pro-OMe)	63	219	32 (≈ 59.5 µM)	lower concentration than the control	> 128	–	–	–	–
CCC(C)[C@H](NC(C)=O)C(=O)N[C@@H](CCCCNC(=O)OCc1ccccc1)C(=O)N1CCC[C@H]1C(=O)O (some centres unmarked) [Structure 22, Ac-Ile-Lys(Cbz)-Pro-OH]	14	50.7	2 (≈ 3.75 µM)	lower concentration than the control	> 128	–	–	–	–
COC(=O)[C@@H]1CCCN1C(=O)[C@H](CC(C)C)NC(=O)[C@H](Cc1ccc(F)cc1)NC(C)=O [Structure 10, Ac(4-F)Phe-Leu-Pro-OMe] (Ac-[Phe(4-F)]-Leu-Pro-OMe)	26	127	32 (≈ 71.2 µM)	lower concentration than the control	> 128	–	–	–	–
CC(=O)N[C@@H](Cc1ccc(F)cc1)C(=O)N[C@@H](CC(C)C)C(=O)N1CCC[C@H]1C(=O)O [Structure 11] (Ac-[Phe(4-F)]-Leu-Pro-OH)	69	363	4 (≈ 9.18 µM)	lower concentration than the control	> 128	–	–	–	–
CCCCCCCC(=O)N[C@@H](Cc1ccc(OCc2ccccc2)cc1)C(=O)N[C@@H](CC(C)C)C(=O)N1C[C@H](O)C[C@H]1C(=O)N[C@H](CCCNC(=N)N)C(=O)N1CCCCC1 [Structure 32, Octanoyl-Tyr(Bzl)-Leu-Hyp-ArgN(CH2)5 trifluoroacetate] (Octanoyl-Y(Bn)L[Hyp][dR]-Piperidide)	12	14.2	–	–	–	64	–	–	–
CCCCCCCC(=O)N[C@@H](Cc1ccc(OCc2ccccc2)cc1)C(=O)N[C@@H](CC(C)C)C(=O)N1CCC[C@H]1C(=O)N[C@H](CCCNC(=N)N)C(=O)N1CCCCC1 [Structure 28, Octanoyl-Tyr(Bzl)-Leu-Pro-Arg-N(CH2)5 trifluoroacetate] (Octanoyl-Y(Bn)LP[dR]-Piperidide)	13	14.4	–	–	–	32	–	–	–
CC(=O)N[C@@H](Cc1ccc(OCc2ccccc2)cc1)C(=O)N[C@@H](CC(C)C)C(=O)N1CCC[C@H]1C(=O)O [Structure 3, Ac-Tyr(Bzl)-Leu-Pro-OH] (Ac-Tyr(Bn)-Leu-Pro-OH)	110	399	–	surpasses that of pyrrhocoricin	–	–	32 (≈ 61.1 µM)	64 (≈ 122 µM)	surpasses that of pyrrhocoricin
